Experimental data as given in PMC8121805, “Discovery of first-in-class inhibitors of ASH1L histone methyltransferase with anti-leukemic activity” (Nature Communications, 2021).
“And” between values parts separate entries of the source, which are not always exact repeats. Equal entries are not always repeated.

Columns and labels:
Type in all cases: cell-based, human
K562 cells = assay: MTT cell viability assay; conditions: MTT, 7 days
Description: (§1) Human leukemia cells K562, MV4;11 and RS4;11 (purchased from ATCC) and KOPN8, MOLM13 (purchased from DSMZ) were cultured in RPMI 1640 (Invitrogen) supplemented with 10% heat inactivated (h.i.) FBS and 1% penicillin/streptomycin (Invitrogen). SET2 cells (purchased from DSMZ) were cultured in RPMI 1640 supplemented with 20% h.i. FBS and 1% penicillin/streptomycin. Cells were plated at 1 × 10^5 to 2 × 10^5 cells/mL depending on cell line and treated with 0.25% DMSO or varying concentrations of compounds and incubated at 37 °C, 5% CO2 incubator for 7 days. Media was changed on day 3 or 4 and compounds were resupplied. […] Cell suspensions (100 μL) were transferred to the 96-well plates for each sample in quadruplicate at the time of media change. At day 7, 10 µL of MTT reagent (M6494, Molecular Probes™) was added to each well of the 96 well plate and incubated at 37 °C for 4 h. The formazan was then solubilized by adding 100 µL acidified 10% SDS solution and incubated at 37 °C overnight. Plates were read for absorbance at 570 nm using a PHERAstar BMG microplate reader. The experiments were performed two times in quadruplicates with calculation of mean and SD for each condition. Data were analyzed in Prism 8.0.0 to obtain GI50 values.
(§2) Supplementary Figure 7. […] (a)
(§3) Titration curves from the MTT cell viability assay performed after 4, 7, and 11 (or 10) days of
(§4) Titration curves from the MTT cell viability assay performed after 7 days of treatment of KOPN8 ,
(§5) MOLM13 and MV4;11 cell lines harboring MLL1 translocation (MLL1-r) or K562 cell line (non-
(§6) Representative graphs are shown
(§7) from two independent MTT experiments performed for each cell line. GI50 values correspond to […]

KOPN8 cells [1] = assay: MTT cell viability assay; conditions: MTT, 7 days
Description: as §1, §2, §3, §4, §5, §6, §7

RS4;11 cells = assay: MTT cell viability assay; conditions: 7 days
Description: as §1

SET2 cells = assay: MTT cell viability assay; conditions: MTT, 7 days
Description: as §1

KOPN8 cells [2] = assay: Flow cytometry of CD11B expression (differentiation); conditions: 7 days
Description: (§8) In addition, 1 × 10^5 cells per sample were stained with Zombie Aqua™ dye (1:100 dilution) for 15 min using the Zombie Aqua™ Fixable Viability Kit (Zombie Aqua™ Fixable Viability Kit, Biolegend®) […] and then for 30 min with an anti-CD11B-PE antibody (982606, ICRF44, Biolegend®) or anti-CD11B-Pacific Blue (101224, BD BioLegend) antibody at 1:50 dilution, according to the No-wash Sequential Staining Protocol described by the manufacturer (BioLegend, Zombie Aqua Fixable Viability Kit). Cells were washed twice with 500 µL PBS containing 1% FBS and resuspended in 200 µL PBS with 1% FBS.

MV4;11 cells = assay: as above; conditions: for MV4;11 % CD11B+ cells: 7 days
Description: as §8

[3] = test system: MLL fusion target genes in MOLM13 cells; assay: Real time qRT-PCR gene expression
Description: 0.5 × 10^6 – 3 × 10^6 cells from each sample were collected at days 7 or 8 of treatment, centrifuged at 211 xg, and RNA was extracted according to the RNeasy Mini Kit protocol (74106, Qiagen). Extracted RNA was quantified using Nanodrop 2000 UV-Vis spectrophotometer and 0.5–1 µg of total RNA was reverse transcribed into cDNA using High-Capacity cDNA Reverse Transcription Kit (4368814, Applied Biosystems™) according to the manufacturer’s protocol. Real-time PCR was performed using the CFX96 Touch Real-Time PCR Detection System (Bio-Rad). TaqMan Gene Expression Master Mix and TaqMan Gene Expression Assays were purchased from Applied Biosystems. Relative quantification of each gene transcript was carried out using the comparative Ct method as described in the Applied Biosystems User Bulletin no. 2. TaqMan Gene Expression Assays were used: HPRT1: Hs02800695_m1, DLX2: Hs00269993_m1, FLT3: Hs00174690_m1, HOXA9: Hs00365956_m1, MEF2C: Hs00231149_m1, MEIS1: Hs00180020_m1, MNDA: Hs00935905_m1.
Supplementary Figure 10. Effect of AS-nc on gene expression in MLL leukemia cells. (a, b) Quantitative RT-PCR performed in MOLM13 cells (a) or MV4;11 cells (b) after 7 days of treatment with AS-nc. Gene expression was normalized to HPRT1 and referenced to the DMSO treated cells. Representative data from two independent experiments, each performed in triplicates, […]

## CN1CC(C(=O)NCc2ccc3c(-c4cccc(C(N)=O)c4)cn(C4CCN(S(=O)(=O)C(F)(F)F)CC4)c3c2)C1 [AS-nc]
K562 cells; log[compound] -4.92082
  % activity K562: 87.2356% and 88.3293% and 79.0617% and 81.4793%
K562 cells; log[compound] -5.22185
  % activity K562: 96.906% and 94.8338% and 87.581% and 99.8993%
K562 cells; log[compound] -5.52288
  % activity K562: 91.5527% and 87.8688% and 87.2356% and 88.1566%
K562 cells; log[compound] -5.82391
  % activity K562: 106.979% and 101.569% and 98.9783% and 92.4737%
K562 cells; log[compound] -6.12494
  % activity K562: 95.2367% and 84.818% and 86.8902% and 88.0414%
K562 cells; log[compound] -6.42597
  % activity K562: 88.8473% and 100.475% and 98.4026% and 99.0934%
KOPN8 cells [1]; log[compound] -4.92082
  % activity KOPN-8: 88.0603% and 89.0658% and 78.5086% and 67.1135%
KOPN8 cells [1]; log[compound] -5.22185
  % activity KOPN-8: 96.2715% and 87.8928% and 88.5631% and 98.2824%
KOPN8 cells [1]; log[compound] -5.52288
  % activity KOPN-8: 93.4227% and 96.9418% and 95.7687% and 88.2279%
KOPN8 cells [1]; log[compound] -5.82391
  % activity KOPN-8: 91.9145% and 89.5685% and 90.7415% and 92.2497%
KOPN8 cells [1]; log[compound] -6.12494
  % activity KOPN-8: 92.2497% and 92.4173% and 96.2715% and 88.7306%
KOPN8 cells [1]; log[compound] -6.42597
  % activity KOPN-8: 96.439% and 101.969% and 107.164% and 94.4282%
RS4;11 cells; log[compound] -4.92082
  % activity RS4;11: 85.5125% and 87.6993% and 89.3394% and 75.672%
RS4;11 cells; log[compound] -5.22185
  % activity RS4;11: 105.376% and 104.647% and 93.5307% and 91.5262%
RS4;11 cells; log[compound] -5.52288
  % activity RS4;11: 102.096% and 100.638% and 93.713% and 78.4055%
RS4;11 cells; log[compound] -5.82391
  % activity RS4;11: 120.137% and 113.941% and 76.4009% and 77.1298%
RS4;11 cells; log[compound] -6.12494
  % activity RS4;11: 99.7267% and 104.647% and 93.8952%
RS4;11 cells; log[compound] -6.42597
  % activity RS4;11: 106.287% and 103.553% and 98.8155% and 91.344%
SET2 cells; log[compound] -4.92082
  % activity SET2: 98.5542% and 101.644% and 102.951% and 102.436%
SET2 cells; log[compound] -5.22185
  % activity SET2: 96.2567% and 98.5146% and 98.9107% and 94.9495%
SET2 cells; log[compound] -5.52288
  % activity SET2: 90.1168% and 94.8703% and 93.8007% and 101.723%
SET2 cells; log[compound] -5.82391
  % activity SET2: 80.8081% and 86.1953% and 84.7693% and 93.5235%
SET2 cells; log[compound] -6.12494
  % activity SET2: 93.2858% and 94.8703% and 102.04% and 107.625%
SET2 cells; log[compound] -6.42597
  % activity SET2: 105.803% and 101.208% and 102.278% and 90.711%
KOPN8 cells [2]; 2 uM
  KOPN8 % CD11B+ cells: 0.42% and 0.43% and 0.48%
KOPN8 cells [2]; 4 uM
  KOPN8 % CD11B+ cells: 0.64% and 0.72% and 0.67%
KOPN8 cells [2]; 6 uM
  KOPN8 % CD11B+ cells: 0.89% and 0.7% and 0.72%
MV4;11 cells; 2 uM
  MV4;11 % CD11B+ cells: 1.31% and 1.08% and 1.06%
MV4;11 cells; 4 uM
  MV4;11 % CD11B+ cells: 0.67% and 0.84% and 0.66%
MV4;11 cells; 6 uM
  MV4;11 % CD11B+ cells: 1.1% and 1.04% and 1.27%
MV4;11 cells; MV4;11 and KOPN8
  differentiation in MLL leukemia cells: not observed
[3]; AS-nc 2 uM
  MOLM13 fold change vs DMSO, DLX2: 1.06 and 1.01 and 0.76
  MOLM13 fold change vs DMSO, FLT3: 1.07 and 0.95 and 0.92
  MOLM13 fold change vs DMSO, HOXA9: 1.01 and 1.09 and 0.84
  MOLM13 fold change vs DMSO, MEF2C: 0.98 and 1.02 and 0.94
  MOLM13 fold change vs DMSO, MEIS1: 1.03 and 1.08 and 0.97
  MOLM13 fold change vs DMSO, MNDA: 1.45 and 1.05 and 1.01
[3]; AS-nc 4 uM
  MOLM13 fold change vs DMSO, DLX2: 1.02 and 0.96 and 0.71
  MOLM13 fold change vs DMSO, FLT3: 1.03 and 0.86 and 0.96
  MOLM13 fold change vs DMSO, HOXA9: 0.95 and 1 and 1.06
  MOLM13 fold change vs DMSO, MEF2C: 1 and 0.95 and 1.01
  MOLM13 fold change vs DMSO, MEIS1: 0.97 and 1.1 and 0.95
  MOLM13 fold change vs DMSO, MNDA: 1.29 and 1.57 and 1.44
[3]; AS-nc 6 uM
  MOLM13 fold change vs DMSO, DLX2: 1.04 and 1 and 0.77
  MOLM13 fold change vs DMSO, FLT3: 1.07 and 0.95 and 0.88
  MOLM13 fold change vs DMSO, HOXA9: 1.03 and 0.88 and 0.9
  MOLM13 fold change vs DMSO, MEF2C: 1.03 and 0.94 and 0.96
  MOLM13 fold change vs DMSO, MEIS1: 0.86 and 1.09 and 0.93
  MOLM13 fold change vs DMSO, MNDA: 1.31 and 1.06 and 0.93
[3]; MOLM13 and MV4;11
  expression of MLL fusion target genes (MEF2C, DLX2, FLT3, HOXA9): no changes
